Results taken from PubChem BioAssay AID248 (DTP/NCI, 2004).
Several values for one entry are separate records, joined by “and”; a condition that tells them apart may be missing. Identical values can stand only once. Inconclusive results and toxic doses are left out.

System: L1210 leukemia ip in BDF1 mice, survival T/C
Experiment: NCI In Vivo Anticancer Drug Screen. Data for tumor model L1210 Leukemia (intraperitoneal) in B6D2F1 (BDF1) mice
Settings: endpoint: mean survival time, higher = longer survival
Outline: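 In this screen, tumor-bearing mice given compound are compared to those given vehicle, and their survival values are reported as a treated-to-control quotient.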

For [N-]=[N+]=CC(=O)NCC(=O)NN, the T/C (dose: 50.0 mg/kg/injection, schedule: Q01DX Z (sc), vehicle: steriod suspending solution) was 101 % of control, the T/C (dose: 50.0 mg/kg/injection, schedule: Q02DX Z (ip), vehicle: saline) was 102 % of control and the T/C (dose: 50.0 mg/kg/injection, schedule: Q03DX Z (ip), vehicle: saline) was 101 % of control. For the same compound, the T/C (dose: 100.0 mg/kg/injection, schedule: Q01DX001 (ip), vehicle: saline) was 108 % of control, the T/C (dose: 100.0 mg/kg/injection, schedule: Q01DX005 (ip), vehicle: other) was 114 % of control and the T/C (dose: 100.0 mg/kg/injection, schedule: Q01DX009 (ip), vehicle: other) was 115 % of control. The T/C (dose: 100.0 mg/kg/injection, schedule: Q01DX009 (ip), vehicle: saline) was 119 % of control, the T/C (dose: 100.0 mg/kg/injection, schedule: Q01DX Z (sc), vehicle: steriod suspending solution) was 101 % of control and the T/C (dose: 100.0 mg/kg/injection, schedule: Q02DX Z (ip), vehicle: saline) was 108 % of control. The T/C (dose: 100.0 mg/kg/injection, schedule: Q03DX Z (ip), vehicle: saline) was 108 % of control, the T/C (dose: 100.0 mg/kg/injection, schedule: Q## X008 (ip), vehicle: water) was 98 % of control and the T/C (dose: 125.0 mg/kg/injection, schedule: Q01DX006 (iv), vehicle: saline) was 98 % of control. For the same compound, the T/C (dose: 125.0 mg/kg/injection, schedule: Q01DX009 (ip), vehicle: other) was 118 % of control, the T/C (dose: 125.0 mg/kg/injection, schedule: Q01DX009 (sc), vehicle: other) was 100 % of control and the T/C (dose: 125.0 mg/kg/injection, schedule: Q01DX017 (ip), vehicle: saline) was 121 % of control. The T/C (dose: 125.0 mg/kg/injection, schedule: Q01DX Z (ip), vehicle: other) was 116 % of control, the T/C (dose: 200.0 mg/kg/injection, schedule: Q01DX001 (ip), vehicle: saline) was 110 % of control and the T/C (dose: 200.0 mg/kg/injection, schedule: Q01DX Z (ip), vehicle: water) was 124 % of control. The T/C (dose: 200.0 mg/kg/injection, schedule: Q01DX Z (sc), vehicle: steriod suspending solution) was 98 % of control, the T/C (dose: 200.0 mg/kg/injection, schedule: Q03DX Z (ip), vehicle: saline) was 154 % of control and the T/C (dose: 200.0 mg/kg/injection, schedule: Q## X008 (ip), vehicle: water) was 98 % of control. The T/C (dose: 225.0 mg/kg/injection, schedule: Q01DX Z (ip), vehicle: saline) was 124 % of control, the T/C (dose: 225.0 mg/kg/injection, schedule: Q01DX Z (ip), vehicle: water) was 121 % of control and the T/C (dose: 250.0 mg/kg/injection, schedule: Q01DX006 (iv), vehicle: saline) was 106 % of control. For the same compound, the T/C (dose: 250.0 mg/kg/injection, schedule: Q01DX009 (ip), vehicle: other) was 156 % of control, the T/C (dose: 250.0 mg/kg/injection, schedule: Q01DX009 (sc), vehicle: other) was 108 % of control and the T/C (dose: 250.0 mg/kg/injection, schedule: Q01DX017 (ip), vehicle: saline) was 124 % of control. For the same compound, the T/C (dose: 250.0 mg/kg/injection, schedule: Q01DX Z (ip), vehicle: other) was 123 % of control, the T/C (dose: 250.0 mg/kg/injection, schedule: Q02DX005 (ip), vehicle: saline) was 121 % of control and the T/C (dose: 250.0 mg/kg/injection, schedule: Q04DX003 (ip), vehicle: saline) was 110 % of control. The T/C (dose: 250.0 mg/kg/injection, schedule: Q08DX002 (ip), vehicle: other) was 112 % of control, the T/C (dose: 250.0 mg/kg/injection, schedule: Q## X005 (ip), vehicle: saline) was 111 % of control and the T/C (dose: 300.0 mg/kg/injection, schedule: Q01DX009 (sc), vehicle: other) was 118 % of control. For the same compound, the T/C (dose: 375.0 mg/kg/injection, schedule: Q01DX Z (ip), vehicle: other) was 160 % of control, the T/C (dose: 400.0 mg/kg/injection, schedule: Q01DX001 (ip), vehicle: saline) was 106 % of control and the T/C (dose: 400.0 mg/kg/injection, schedule: Q01DX005 (ip), vehicle: other) was 150 % of control. For the same compound, the T/C (dose: 400.0 mg/kg/injection, schedule: Q01DX009 (ip), vehicle: saline) was 156 % of control, the T/C (dose: 400.0 mg/kg/injection, schedule: Q01DX Z (im), vehicle: other) was 112 % of control and the T/C (dose: 400.0 mg/kg/injection, schedule: Q01DX Z (ip), vehicle: other) was 157 % of control. For the same compound, the T/C (dose: 400.0 mg/kg/injection, schedule: Q01DX Z (oral), vehicle: other) was 102 % of control, the T/C (dose: 400.0 mg/kg/injection, schedule: Q01DX Z (oral), vehicle: saline) was 116 % of control and the T/C (dose: 400.0 mg/kg/injection, schedule: Q## X008 (ip), vehicle: water) was 103 % of control. The T/C (dose: 500.0 mg/kg/injection, schedule: Q01DX001 (ip), vehicle: saline) was 111 % of control and 117 % of control, the T/C (dose: 500.0 mg/kg/injection, schedule: Q01DX006 (iv), vehicle: saline) was 110 % of control and the T/C (dose: 500.0 mg/kg/injection, schedule: Q01DX009 (sc), vehicle: other) was 118 % of control. For the same compound, the T/C (dose: 500.0 mg/kg/injection, schedule: Q01DX Z (ip), vehicle: other) was 118 % of control and 124 % of control, the T/C (dose: 500.0 mg/kg/injection, schedule: Q01DX Z (ip), vehicle: water) was 90 % of control and the T/C (dose: 500.0 mg/kg/injection, schedule: Q## X005 (ip), vehicle: saline) was 114 % of control. For the same compound, the T/C (dose: 500.0 mg/kg/injection, schedule: Q## X024 (ip), vehicle: water) was 112 % of control, the T/C (dose: 600.0 mg/kg/injection, schedule: Q01DX009 (ip), vehicle: saline) was 117 % of control and the T/C (dose: 600.0 mg/kg/injection, schedule: Q01DX Z (im), vehicle: other) was 120 % of control. For the same compound, the T/C (dose: 600.0 mg/kg/injection, schedule: Q01DX Z (ip), vehicle: water) was 150 % of control, the T/C (dose: 600.0 mg/kg/injection, schedule: Q01DX Z (sc), vehicle: other) was 115 % of control and the T/C (dose: 600.0 mg/kg/injection, schedule: Q## X008 (ip), vehicle: water) was 109 % of control. The T/C (dose: 750.0 mg/kg/injection, schedule: Q01DX009 (sc), vehicle: other) was 118 % of control, the T/C (dose: 750.0 mg/kg/injection, schedule: Q01DX Z (ip), vehicle: other) was 123 % of control and the T/C (dose: 800.0 mg/kg/injection, schedule: Q01DX Z (im), vehicle: other) was 101 % of control. For the same compound, the T/C (dose: 800.0 mg/kg/injection, schedule: Q01DX Z (ip), vehicle: other) was 124 % of control, the T/C (dose: 800.0 mg/kg/injection, schedule: Q01DX Z (oral), vehicle: other) was 117 % of control and the T/C (dose: 800.0 mg/kg/injection, schedule: Q01DX Z (oral), vehicle: saline) was 122 % of control. The T/C (dose: 800.0 mg/kg/injection, schedule: Q01DX Z (sc), vehicle: other) was 91 % of control, the T/C (dose: 800.0 mg/kg/injection, schedule: Q02DX005 (ip), vehicle: saline) was 183 % of control and the T/C (dose: 800.0 mg/kg/injection, schedule: Q02DX Z (ip), vehicle: other) was 182 % of control. The T/C (dose: 800.0 mg/kg/injection, schedule: Q03DX Z (ip), vehicle: other) was 150 % of control, the T/C (dose: 1000.0 mg/kg/injection, schedule: Q01DX001 (ip), vehicle: saline) was 115 % of control and the T/C (dose: 1000.0 mg/kg/injection, schedule: Q01DX001 (sc), vehicle: other) was 108 % of control. The T/C (dose: 1000.0 mg/kg/injection, schedule: Q01DX006 (iv), vehicle: saline) was 109 % of control, the T/C (dose: 1000.0 mg/kg/injection, schedule: Q01DX Z (ip), vehicle: other) was 100 % of control and the T/C (dose: 1000.0 mg/kg/injection, schedule: Q02DX009 (ip), vehicle: saline) was 119 % of control. For the same compound, the T/C (dose: 1000.0 mg/kg/injection, schedule: Q04DX003 (ip), vehicle: other) was 162 % of control, the T/C (dose: 1000.0 mg/kg/injection, schedule: Q04DX003 (ip), vehicle: saline) was 156 % of control and the T/C (dose: 1000.0 mg/kg/injection, schedule: Q## X005 (ip), vehicle: saline) was 158 % of control. The T/C (dose: 1200.0 mg/kg/injection, schedule: Q02DX Z (ip), vehicle: other) was 98 % of control, the T/C (dose: 1200.0 mg/kg/injection, schedule: Q03DX Z (ip), vehicle: other) was 156 % of control and the T/C (dose: 1250.0 mg/kg/injection, schedule: Q03HX016 (ip), vehicle: saline) was 105 % of control. The T/C (dose: 1500.0 mg/kg/injection, schedule: Q01DX001 (ip), vehicle: other) was 150 % of control, the T/C (dose: 1500.0 mg/kg/injection, schedule: Q01DX001 (ip), vehicle: saline) was 150 % of control and the T/C (dose: 1500.0 mg/kg/injection, schedule: Q01DX001 (sc), vehicle: other) was 107 % of control. The T/C (dose: 1500.0 mg/kg/injection, schedule: Q03HX016 (ip), vehicle: saline) was 96 % of control, the T/C (dose: 1500.0 mg/kg/injection, schedule: Q04DX003 (ip), vehicle: saline) was 180 % of control and the T/C (dose: 1500.0 mg/kg/injection, schedule: Q08DX002 (ip), vehicle: saline) was 164 % of control. The T/C (dose: 1500.0 mg/kg/injection, schedule: Q## X024 (ip), vehicle: water) was 154 % of control, the T/C (dose: 1600.0 mg/kg/injection, schedule: Q01DX Z (ip), vehicle: other) was 150 % of control and the T/C (dose: 1750.0 mg/kg/injection, schedule: Q03HX016 (ip), vehicle: saline) was 102 % of control. For the same compound, the T/C (dose: 2000.0 mg/kg/injection, schedule: Q01DX001 (ip), vehicle: other) was 168 % of control, the T/C (dose: 2000.0 mg/kg/injection, schedule: Q01DX001 (sc), vehicle: other) was 118 % of control and the T/C (dose: 2000.0 mg/kg/injection, schedule: Q03HX016 (ip), vehicle: saline) was 111 % of control. For the same compound, the T/C (dose: 2000.0 mg/kg/injection, schedule: Q## X005 (ip), vehicle: saline) was 104 % of control.
